Measured values reported in a melting point compilation (Tetko et al.).

SMILES	melting point [°C]
Nc1nc2ccc(C(=O)O)cc2o1	337 to 339
COc1cc(C(=O)O)c(N)cc1OC(F)F	152 to 154
Ic1c[nH]c2ccncc12	171 to 173
CNS(=O)(=O)CBr	64 to 66
COc1ccc(CCNC(N)=S)cc1	166 to 168
NCC(=O)Nc1cccc(Br)c1	79 to 81
CCCc1c(C(=O)O)nnn1-c1cccc(Cl)c1	129 to 131
CCOC(=O)c1cnn(-c2ccc(C(=O)O)cc2)c1C(F)(F)F	175 to 177
NC(=S)NCC1CCC1	123 to 125
Nc1ccc(OCc2cccc(F)c2)c(Cl)c1	79 to 81
C=CCn1c(S)nnc1C1CCS(=O)(=O)C1 (stereo not given)	101 to 103
N#CCN1CCN(Cc2ccccc2)CC1	49 to 51
Cn1cc(C(=O)O)cn1	203 to 205
Brc1cnc2c(c1)NCCO2	149 to 151
CC(C)(CC(=O)O)NC(=O)OC(C)(C)C	89 to 91
COc1ccccc1Nc1nnc(S)s1	182 to 184
CC(=O)N(C)c1ccc(S(N)(=O)=O)cc1	153 to 155
COc1cc(C)ccc1Oc1ccc(F)cc1N	60 to 62
CC1CCN(C(N)=S)CC1	103 to 105
c1ccc(C2=NCCN2)nc1	149 to 151
CC(=O)c1cccc(NS(C)(=O)=O)c1	91 to 93
COc1ccc(CC(=O)NN)cc1	132 to 134
CC(C)(C#N)N1CCN(C(C)(C)C#N)CC1	182 to 184
O=C(O)CNC(=O)CNC(=O)c1ccco1	208 to 210
Clc1ccc2nnc(-c3ccccc3)n2n1	201 to 203

SMILES	melting point [°C]
Cc1ccccc1-c1cnc(N)s1	119 to 121
CC(=O)N(C)c1nc(CCl)cs1	139 to 141
Cc1ccc(OCc2nc(C(=O)NC3=NCCS3)cs2)cc1	200 to 202
COC(=O)C1CSCC(c2ccccc2)N1 (stereo not given)	96 to 98
CC(C)OCCS(=O)(=O)NCC(=O)O	63 to 65
C#CCOc1cccc(S(C)(=O)=O)c1	89 to 91
c1coc(-c2nc(C3CCCCC3)n[nH]2)c1	147 to 149
O=c1c(C(O)(O)C(F)(F)F)coc2ccc(Cl)cc12	114 to 116
O=C(CBr)C12CC3CC(CC(C3)C1)C2	59 to 61
CC(O)c1ccccc1-c1ccccc1 (stereo not given)	104 to 106
O=C(O)c1cc2c(cc1O)OCO2	189 to 191
Cc1c(C(=O)O)sc2nc(CCl)[nH]c(=O)c12	322 to 324
Oc1ccc2cccc(O)c2n1	293 to 295
O=C(CN1C(=O)CCC1=O)c1ccccc1F	154 to 156
Cc1nnc(-c2ccccc2F)o1	37 to 39
COc1nc(Cl)c(C=O)n1C	105 to 107
Nc1ccc(S(=O)(=O)NCc2ccc(Cl)cc2)cc1	174 to 176
Fc1ccc(-c2nc(CCl)co2)cc1F	59 to 61
O=C(O)C(Cc1ccccc1)N1CCCOC1=O (stereo not given)	163 to 165
CC1CC(C)CN(S(=O)(=O)c2ccc(C(=O)O)cc2)C1 (stereo not given)	275 to 277
ClCc1ncc(-c2ccccc2)o1	63 to 65
O=C(O)c1cccc(OCc2ccc(F)cc2)c1	143 to 145
O=C(O)C1=NN(Cc2ccccc2)C(=O)CC1	179 to 181
O=C(CCl)N1CCSc2ccccc21	53 to 55
Cc1nc(Cl)sc1C(=O)O	149 to 151

SMILES	melting point [°C]
COC(=O)c1cc([N+](=O)[O-])cc([N+](=O)[O-])c1F	67 to 69
O=C(O)COc1ccc(C2SCCCS2)cc1	201 to 203
NCc1ccc(N2CCN(c3ccccc3)CC2)nc1	111 to 113
CC(C)(C)OC(=O)N1CCN2C(=O)NCC2C1 (stereo not given)	218 to 220
COC(=O)c1ccc(C(=O)O)s1	194 to 196
O=C(CCl)NN1C(=O)NC2(CCCCC2)C1=O	105 to 107
COc1cccc2sc(NC(=O)OCC(F)(F)F)nc12	133 to 135
O=C(O)C1CSC(c2cccs2)N1 (stereo not given)	148 to 150
CC(Oc1ccccc1Br)C(=O)O (stereo not given)	138 to 140
Cc1cc(CSc2ncccc2C(=O)O)no1	169 to 171
NC(=O)c1ccc(C(N)=S)cc1	240 to 242
O=C(CCl)c1ccc(Br)cc1	119 to 121
O=C(O)C1=NN(Cc2ccc(F)cc2)C(=O)CC1	190 to 192
NC(=O)c1cccc(C(N)=S)c1	210 to 212
COc1ccc(C(=O)Nc2cccc(C=O)c2)cc1	128 to 130
Nc1ccc(-c2nnco2)cc1	155 to 157
CS(=O)(=O)NC1CCC(O)CC1 (stereo not given)	149 to 151
O=C(O)c1cc(F)cc2nccnc12	219 to 221
Cc1cc(F)ccc1S(=O)(=O)Nc1ccc(C(=O)O)cc1	199 to 201
O=C(O)c1nn(-c2ccc(Cl)cc2)cc1O	248 to 250
OCc1ccc(Oc2ccc(Br)cc2)c(F)c1	68 to 70
CC(=O)c1ccc(Cl)c(N)c1	103 to 105
COc1cccc(C(=O)c2cccnc2)c1	72 to 74
COc1ccc(-c2nn(-c3ccccc3)cc2CC(=O)O)cc1	161 to 163
CCOC(=O)c1cnc(SC)nc1N	110 to 120

SMILES	melting point [°C]
ClCc1nc(-c2cccc(Br)c2)no1	47 to 49
COc1cc(C(=O)NN)ccc1OCCC(C)C	88 to 90
COc1n[nH]c(N)c1C#N	179 to 181
Sc1nnc(-c2ccccc2)c2ccccc12	178 to 180
COC(=O)CCCCCNC(N)=S	84 to 86
CSc1nnnn1-c1cccc(N)c1	113 to 115
O=c1c2ccccc2nc(Cl)n1-c1ccccc1	127 to 129
N#CC1(N)CCN(Cc2ccccc2)CC1	67 to 69
CCN1CCN(c2ccccc2N)CC1	39 to 43
CCN(CC)S(=O)(=O)c1ccc(C)c(C(=O)O)c1	140 to 142
O=C(O)CSc1nncn1-c1ccccc1	207 to 209
CC(=O)c1sc(-c2ccc(Br)cc2)nc1C	103 to 105
N#Cc1ccc(-c2cccs2)[nH]c1=O	301 to 303
CCN1N=C(C)CC1=O	107 to 109
CC(C)Nc1cc(F)ccc1[N+](=O)[O-]	68 to 70
FC(F)(F)Cn1c(S)nnc1-c1ccncc1	243 to 245
COC(=O)c1c[nH]c(C2CC2)n1	119 to 121
Cc1cc(C(=O)NC2CCCCC2)ccc1N	178 to 180
CC1Oc2c(ccc(Cl)c2Cl)C1=O (stereo not given)	99 to 101
COC(=O)C(CCl)NC(C)=O (stereo not given)	74 to 76
Cc1[nH]c2ccccc2c1C(=O)C(=O)O	199 to 201
Oc1ccc2c(c1)OCC2O (stereo not given)	104 to 106
Nc1ccc(-c2cccc(C(F)(F)F)c2)cc1	65 to 67
Clc1cc2ccccc2c(Cl)n1	100 to 102
O=C(O)c1ccc(S)cc1Cl	184 to 186

SMILES	melting point [°C]
O=C(O)C=Cc1ccc([N+](=O)[O-])o1	230 to 232
NC(C(=O)O)c1ccccc1F (stereo not given)	229 to 231
Cc1cccc2[nH]cc(CC(=O)O)c12	149 to 151
CCOC(=O)/C(C#N)=C\Nc1ccccc1CC	124 to 126
COc1cccc(CNC(N)=O)c1	111 to 113
COc1ccc(O)c(C(C)(C)C)c1	61 to 63
COc1cc(/C=C(/C#N)C(=O)O)ccc1O	199 to 201
COc1cc(-c2cc(C(=O)NN)c3ccccc3n2)cc(OC)c1OC	200 to 202
CCCc1nc2ccccc2c(C(=O)O)c1CC	222 to 224
Cc1cccc2ncc(C=O)n12	128 to 130
O=C(O)Cn1cnc([N+](=O)[O-])n1	187 to 189
Cn1cc(C(=O)O)c(-c2ccc(N)cc2)n1	226 to 228
O=Cc1cn(-c2ccccc2)nc1-c1ccccc1	144 to 148
NCC(O)c1ccc2ccccc2c1 (stereo not given)	115 to 117
OCc1cn2cc(Cl)cc(Cl)c2n1	177 to 179
O=C(O)COc1ccc2c3c(c(=O)oc2c1)CCC3	170 to 172
Nc1cc(Cl)ccc1N1CCC(CO)CC1	144 to 146
N#Cc1cccnc1Oc1ccc(N)cc1	152 to 154
COC(=O)C(C)NC(=O)Cc1ccc(Cl)cc1 (stereo not given)	82 to 84
O=C(O)CC1CCCN1C(=O)c1ccc(Br)c(F)c1 (stereo not given)	134 to 136
CCCCc1ccc(NC(=S)NN)cc1	125 to 127
CCC(C)(C)c1ccc(C(=O)O)cc1	103 to 105
CCOc1cccc(C=CC(=O)O)c1OC1CCCCC1	137 to 139
CN1CC(=O)N(c2cccc(N)c2)C1=O	131 to 133
Sc1nc2cc(Br)cnc2[nH]1	324 to 326

SMILES	melting point [°C]
O=S(=O)(Cl)c1ccc(F)c2ncccc12	104 to 106
CC(=O)c1ccn(S(=O)(=O)c2ccc(C)cc2)c1	83 to 85
CCC(C)C(=O)NN (stereo not given)	88 to 90
O=C(O)C1Cc2ccccc2N1 (stereo not given)	168 to 170
CC(C)(C)OC(=O)NCc1ccc(C(=O)O)c(C2CC2)n1	144 to 146
Cc1nn(-c2ccc(Br)cc2)c(C)c1C=O	142 to 144
COc1ccc(NC2=NCCS2)cc1OC	88 to 90
OCc1nnc(Cl)s1	51 to 53
Cc1ccc(NC(=O)C(C)Cl)c(F)c1 (stereo not given)	105 to 107
COCCOc1cc2c(cc1CO)OCO2	56 to 58
OC(c1ccccc1)C1CCCCN1 (stereo not given)	136 to 138
Nc1ccc(Cl)c(S(=O)(=O)Nc2ccc(Cl)cc2)c1	123 to 125
CC1(C)Cc2cc(C(=O)O)sc2-c2ccccc21	209 to 211
CCNS(=O)(=O)c1ccc(C(=O)O)cc1	219 to 221
N#Cc1cnoc1N	143 to 145
CCOC(=O)c1cc(N)c2c(c1)OCO2	68 to 70
Cc1ccc(Oc2ncccc2C#N)c(Br)c1	116 to 118
COc1ccccc1NCC(=O)NN	103 to 105
O=S(=O)(Cl)c1cccc2c1OCCO2	74 to 76
CCOC(=O)COc1ccccc1C(C)=O	44 to 46
